# Reference: patent publication US10047151B2, “Methods for the treatment of cancer and inflammatory diseases using cereblon as a predictor” (Celgene Corporation, priority 2011, dated 2018)
# What was measured:
# TNF = TNF inhibition by Compound A; format: cell-based
# Jurkat IL-2 = Jurkat IL-2 induction by Compound A; format: cell-based
# CRBN [1] = biological target: T1, CRBN (Homo sapiens, UniProt Q96SW2); test: Binding of compounds to CRBN
# U266B1 cells [2] = test: Cell cycle progression (cells in S phase) in siRNA-transfected U266B1 cells; format: cell-based; conditions: control mock and negative control siRNA-transfected cells; average of 3 days of treatment; pomalidomide 1 μM, lenalidomide 10 μM
# Description: Drugs such as lenalidomide and pomalidomide have direct anti-proliferative activity against MM cells by inducing cell cycle arrest in G1 phase, followed by a decrease in viability. To study the role of CRBN in lenalidomide and other drugs anti-proliferative activities, H929 and U266B1 cells, two sensitive myeloma lines, were transfected with CRBN-siRNAs or control siRNAs for 24, 48, 72 and 96 hours. Cells were treated 24 h after transfection with DMSO (0.1%), pomalidomide (1 μM) and lenalidomide (10 μM) for 1, 2, 3 days to evaluated the compound effect on CRBN protein, mRNA expression and the effect on cell cycle and proliferation. […] CRBN down regulation was confirmed by RT-PCR and Western blot using the CRBN70 antibody (FIG. 1).
# Knockdown of CRBN markedly abrogated the lenalidomide and pomalidomide-induced delay in cell cycle progression in U266B1 cells. Id.
# H929 cells = test: Cell cycle progression (cells in S phase) in siRNA-transfected H929 cells; format: cell-based; conditions: 72 h treatment
# Description: The effect of CRBN in H929 cells was also evaluated. H929 cells were transfected with mock, negative control siRNA and CRBN-siRNA-7 for 24, 48, 72 and 96 h. Cells were treated 24 h after transfection with DMSO (0.1%), pomalidomide (1 μM), lenalidomide (10 μM) or 3-(5-amino-2-methyl-4-oxo-4H-quinazolin-3-yl)-piperidine-2,6-dione (“Compound B”) for 1, 2, 3 days and the effect on cell cycle and proliferation investigated. Lenalidomide, pomalidomide and Compound B induced a delay of cell cycle progression, measured as the decrease of the number of cells in S phase, in control mock and negative control siRNA-transfected cells after 72 h treatment (FIG. 2C). Knockdown of CRBN markedly abrogated immunomodulatory drugs-induced delay in cell cycle progression in H929 cells (FIG. 2C) from of 50 to 4% for lenalidomide, from 70 to 15% for pomalidomide, and from 65 to 22% for Compound B.
# CRBN [3] = test: CRBN mRNA and protein expression after drug treatment (RT-PCR, Western blot); format: cell-based; conditions: H929 and U266B1 cells; pomalidomide 1 μM, lenalidomide 10 μM
# p21^WAF-1 = test: p21WAF-1 mRNA and protein levels in U266B1 cells; format: cell-based; conditions: U266B1, control mock and negative control siRNA-transfected cells; pomalidomide 1 μM, lenalidomide 10 μM
# Description: To further investigate the effects of CRBN on the cell cycle arrest induced by drugs we used RT-PCR and Western blot analysis to measure the levels of key cell cycle and apoptotic regulators. U266B1 cells were transfected with mock, negative control siRNA, CRBN-siRNA-7 and CRBN-siRNA-11 for 24, 48, 72 and 96 h (FIG. 3A). Cells were treated 24 h after transfection with DMSO (0.1%), pomalidomide (1 μM) and lenalidomide (10 μM) for 1, 2, 3 days and the effect on mRNA and protein levels of the cyclin-dependent kinase (CDK) inhibitor p21^WAF-1 were evaluated. It has been shown that lenalidomide- and pomalidomide-induced cell cycle arrest is dependent on up-regulation of p21^WAF-1 in […]. […] However, knockdown of CRBN prevents the induction of p21^WAF-1 indicating the successful abrogation of G1 arrest and renewal of S phase progression (FIGS. 3C & 3D).
# pRb = pRb phosphorylation in H929 cells (Western blot); format: cell-based
# IRF4 [4] = test: IRF4 protein level in H929 cells (Western blot); format: cell-based
# Excerpt: In H929 cells, the cell cycle arrest in G1 phase by the drugs coincides with a reduction of tumor suppressor, pRb, phosphorylation and the oncogene and myeloma survival factor IRF4.
# U266B1 cells [5] = test: Gene expression profile by microarray in U266B1 cells; format: cell-based; conditions: negative control siRNA-transfected U266B1 cells; pomalidomide 1 μM, lenalidomide 10 μM; ±1.7 fold, P<0.05
# Description: Gene expression profile using microarray technology identified 759 or 609 genes differentially modulated in negative control siRNA-transfected U266B1 cells treated with pomalidomide (1 μM) or lenalidomide (10 μM) compared to DMSO treated control (±1.7 fold; P<0.05 ANOVA p-value) (FIGS. 5A & 5B).
# poly-ubiquitin chains = test: Global polyubiquitination by immunofluorescence in H929 cells; format: cell-based; conditions: 1 μM, 30 minutes
# Description: Specific antibodies for poly-ubiquitin chains were used to study the effect of immunomodulatory drugs on global levels of ubiquitination. H929 cells were treated with lenalidomide (1 μM), pomalidomide (1 μM) or proteasome inhibitor MG132. After 30 minutes cells were process for immunofluorescence. Global levels of K63-linked polyubiquitination were quantified by Cellomics.
# U266 = test: Ubiscan ubiquitinated peptide quantification in U266; format: cell-based
# Excerpt: The effects of lenalidomide and pomalidomide on protein ubiquination were investigated using CST Ubiscan technology. Treated samples were sent to Cell Signaling Technology for ubiquinated peptide enrichment and quantification by LC/MS/MS. […] In the MG132 combo, more ubiquinated peptides are observed (compared with their controls). […] These peptides correspond to 176 unique proteins. Top few groups are: nucleosome, chromatin, protein-DNA complex assembly, Histone H2A. Among the 176 proteins, we found five proteins that belong to “ubiquitin-protein ligase activity” category, they are MDM2, HERC2, UBE2D3 (only by pomalidomide), UBE2N (lenalidomide only), UBE2M (both). Results for hits categorized by conditions are shown in FIGS. 8 & 9 (without MG132) and FIGS. 10 & 11 (with MG132).
# T cells = test: Ubiscan ubiquitinated peptide quantification in T cells; format: cell-based
# Excerpt: The effects of lenalidomide and pomalidomide on protein ubiquination were investigated using CST Ubiscan technology. Treated samples were sent to Cell Signaling Technology for ubiquinated peptide enrichment and quantification by LC/MS/MS.
# IRF4 [6] = test: IRF4 protein expression in ABC-DLBCL cells (Western blot); format: cell-based; conditions: OCI-Ly3 cells; 1-3 day treatments
# Description: (§1) Cells were treated with test compounds or 0.1% DMSO for indicated times. Following incubation, cells were collected, pelleted with centrifugation, and immediately lysed in 0.1 ml lysis buffer containing 10 mM Tris-HCl pH 8.0, 10 mM EDTA, 150 mM NaCl, 1% NP-40, 0.5% SDS, 1 mM DTT, 1 mM Na3VO4, plus Complete protease inhibitor cocktail (Roche Applied Science, Indianapolis, Ind.), then processed with a Qiashredder™ (Qiagen, Valencia, Calif.) for 1 minute and frozen on dry ice. Samples were diluted with 6×SDS sample buffer and then boiled for 5 min. Approximately 30 μl of this mixture was loaded per lane on a Criterion Precast 4-12% Tris-HCl gel (Bio-Rad, Hercules, Calif.), electrophoresed, and transferred to nitrocellulose membranes (Bio-Rad, Hercules, Calif.). The membranes were blocked for 1 hour at room temperature using blocking buffer (LI-COR Biosciences, Lincoln, Nebr.), then incubated overnight at 4° C. with antibodies against either BCL-10, IRF4, CRBN or β-actin. Membranes were washed and incubated with IRDye Secondary Antibodies (1:30,000) for 1 hour at room temperature. A standard protocol was then followed for signal detection, using the Odyssey® Infrared Imaging System and software (LI-COR Biosciences, Lincoln, Nebr.).
# To understand the molecular mechanism of lenalidomide on ABC-DLBCL cells, the effects of lenalidomide on IRF4 expression in these cells were investigated. […] Lenalidomide-induced decrease of IRF4 expression occurred as early as 1 day of drug treatment, with similar kinetics to that of the inhibitors (zVRPR-fmk and LY-333,531, respectively) of MALT1 and PKCβ, two key enzymes involved in NF-κB activation upon BCR engagement in B cells.
# [7] = system: CARD11-BCL-10-MALT1 (CBM) complex; test: MALT1-induced BCL-10 cleavage (CBM complex activity) in ABC-DLBCL cells; format: cell-based; conditions: OCI-Ly3 cells
# Description: as §1
# This mutation has been reported to cause constitutive formation and activation of CARD11-BCL-10-MALT1 (CBM) complex of BCR signaling pathway, leading to NF-κB overactivation in lymphoma cells. See Lenz, G., et al., Science 2008, 319: 1676-9; Thome, M. et al., Cold Spring Harb Perspect Biol. 2010; 2: a003004. To investigate the potential involvement of CBM complex in lenalidomide-induced IRF4 inhibition in these cells, the effect of lenalidomide on the complex activity was examined by measuring MALT1 paracaspase enzymatic activity. MALT1 is activated upon association with BCL-10 and CARD11 to form active CBM complex and then cleaves its binding partners, such as BCL-10.
# CRBN [8] = biological target: T1, CRBN; test: Denaturing immunoblot with CGN-6-4-5; format: binding; design: endogenous in cells; host or cells: DF15 myeloma cells (endogenous); HEK293 cells expressing recombinant flag-tagged CRBN on the same blot
# Description: CGN-6-4-5 was diluted 1:10,000 dilution in 0.1% Tween PBS buffer. An exemplary immunoblot with myeloma cells containing endogenous CRBN (DF15), DF15R with no CRBN and HEK293 cells expressing recombinant flag-tagged CRBN is shown in FIG. 38. Peptide neutralization was performed by combining antibody with a five-fold (by weight) excess of blocking peptide in 500 μl PBS and incubating with constant rotation at room temperature for 2 hours.
# [9] = H929 cells with knockdown of CRBN
# [10] = control mock and negative control siRNA-transfected H929 cells
# T1 sequence (Q96SW2 whole entry): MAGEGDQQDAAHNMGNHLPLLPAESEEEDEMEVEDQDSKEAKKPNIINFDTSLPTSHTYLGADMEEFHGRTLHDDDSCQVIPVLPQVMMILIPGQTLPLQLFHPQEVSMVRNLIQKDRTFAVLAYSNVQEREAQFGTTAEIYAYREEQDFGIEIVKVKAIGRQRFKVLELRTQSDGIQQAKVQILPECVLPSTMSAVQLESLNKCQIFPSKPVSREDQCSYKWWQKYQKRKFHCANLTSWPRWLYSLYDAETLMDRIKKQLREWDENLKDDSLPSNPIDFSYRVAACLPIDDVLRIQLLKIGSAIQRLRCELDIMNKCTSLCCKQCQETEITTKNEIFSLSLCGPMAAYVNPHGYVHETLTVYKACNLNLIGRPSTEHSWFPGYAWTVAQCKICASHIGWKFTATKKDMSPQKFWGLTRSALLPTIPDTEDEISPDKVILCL
molecule,measurement,setting,value
Cl.NCCC(=O)NCc1cccc2c1C(=O)N(C1CCC(=O)NC1=O)C2=O (stereo not drawn) [Compound A],IC50,TNF,622 nM
same,Jurkat IL-2 EC200,Jurkat IL-2,3.47 µM
O=C1NC(=O)c2ccccc21 [pthalimide],binding to CRBN,CRBN [1],did not
"Nc1cccc2c1C(=O)N(C1CCC(=O)NC1=O)C2=O (stereo not drawn) [pomalidomide, 4-amino-2-(2,6-dioxopiperidin-3-yl)-1H-isoindole-1,3-dione]","delay of cell cycle progression, measured as the decrease of the number of cells in S phase",U266B1 cells [2],50%
same,delay in cell cycle progression (decrease of the number of cells in S phase),H929 cells; [9],15%
same,delay in cell cycle progression (decrease of the number of cells in S phase),H929 cells; [10],70%
same,mRNA and protein expression of CRBN,CRBN [3],affected neither mRNA nor protein expression of CRBN significantly
same,p21 level,p21^WAF-1,up-regulated
same,phosphorylation of pRB,pRb,decreased
same,total level of protein IRF4,IRF4 [4],decreased
same,genes differentially modulated compared to DMSO treated control,U266B1 cells [5],759 genes
same,K-63-linked ubiquitination,poly-ubiquitin chains,but not K-63-linked ubiquitination
same,total K48-linked polyubiquitination,poly-ubiquitin chains,decrease
same,Ub-proteins increased in abundance,U266,"IKZF3, RPL19, PCM1 and NEDD8"
same,proteins decreased in abundance,U266,GNB2L1 and HNRNPR
"Cc1nc2cccc(N)c2c(=O)n1C1CCC(=O)NC1=O (stereo not drawn) [Compound B, 3-(5-amino-2-methyl-4-oxo-4H-quinazolin-3-yl)-piperidine-2,6-dione]",delay in cell cycle progression (decrease of the number of cells in S phase),H929 cells; [9],22%
same,delay in cell cycle progression (decrease of the number of cells in S phase),H929 cells; [10],65%
same,phosphorylation of pRB,pRb,decreased
same,total level of protein IRF4,IRF4 [4],decreased
same,Ub-proteins increased in abundance,T cells,"IKZF3, RPL19, PCM1 and NEDD8"
same,proteins decreased in abundance,T cells,GNB2L1 and HNRNPR
same,ubiquinated peptides of greater abundance vs. DMSO control,T cells,SECTM1 and ZC3H15
zVRPR-fmk [MALT1 inhibitor],IRF4 levels,IRF4 [6],complete inhibition
C[C@]1(N2C(=O)c3cccc(N)c3C2=O)CCC(=O)NC1=O [S-methyl-pomalidomide],affinity for CRBN (enantiomers compared),CRBN [1],greater affinity for CRBN than R-methyl-pomalidomide
"CN(C)C[C@@H]1CCn2cc(c3ccccc32)C2=C(C(=O)NC2=O)c2cn(c3ccccc23)CCO1 [PKCβ inhibitor, LY-333,531]",IRF4 levels,IRF4 [6],neither lenalidomide nor the PKCβ inhibitor had any appreciable effect
same,BCL-10 cleavage,[7],neither the PKCβ inhibitor nor lenalidomide had any effect
"CGN-6-4-5: rabbit monoclonal anti-CRBN antibody, heavy chain SEQ ID NO:9, light chain SEQ ID NO:11 (antibody) heavy: METGLRWLLLVAVLKGVQCQSVEESGGRLVTPGTPLTLTCTVSGFSLSRYGVSWVRQAPGKGLEHIGYIYSDPGMTFYATWAKGRFTISKTSSTTVDLKMTSPTIEDTATYFCARGTPLASYSTWGPGTLVTISLGQPKAPSVFPLAPCCGDTPSSTVTLGCLVKGYLPEPVTVTWNSGTLTNGVRTFPSVRQSSGLYSLSSVVSVTSSSQPVTCNVAHPATNTKVDKTVAPSTCSKPTCPPPELLGGPSVFIFPPKPKDTLMISRTPEVTCVVVDVSQDDPEVQFTWYINNEQVRTARPPLREQQFNSTIRVVSTLPIAHQDWLRGKEFKCKVHNKALPAPIEKTISKARGQPLEPKVYTMGPPREELSSRSVSLTCMINGFYPSDISVEWEKNGKAEDNYKTTPAVLDSDGSYFLYSKLSVPTSEWQRGDVFTCSVMHEALHNHYTQKSISRSPGK light: MDTRAPTQLLGLLLLWLPGATFAQVLTQTPASVSAAVGGTVTINCQSSENIYKNNYLSWFQQKPGQPPKLLIYQASTLASGVPSRFKGSGSGTRFSLTISDLECDDAATYYCAGGYSGNIFTFGGGTEVVVKGDPVAPTVLIFPPAADQVATGTVTIVCVANKYFPDVTVTWEVDGTTQTTGIENSKTPQNSADCTYNLSSTLTLTSTQYNSHKEYTCKVTQGTTSVVQSFNRGDC",recognition of CRBN on denaturing immunoblots,CRBN [8],specifically recognizes the full-length 51 kDa human CRBN protein
